The results in this text go back to publication PMC9852063 (Molecular carcinogenesis, 2022).

The test concerns the target T1, Doublecortin like kinase 1 (DCLK1) (Homo sapiens, UniProt O15075).
T1 sequence (O15075 1-740): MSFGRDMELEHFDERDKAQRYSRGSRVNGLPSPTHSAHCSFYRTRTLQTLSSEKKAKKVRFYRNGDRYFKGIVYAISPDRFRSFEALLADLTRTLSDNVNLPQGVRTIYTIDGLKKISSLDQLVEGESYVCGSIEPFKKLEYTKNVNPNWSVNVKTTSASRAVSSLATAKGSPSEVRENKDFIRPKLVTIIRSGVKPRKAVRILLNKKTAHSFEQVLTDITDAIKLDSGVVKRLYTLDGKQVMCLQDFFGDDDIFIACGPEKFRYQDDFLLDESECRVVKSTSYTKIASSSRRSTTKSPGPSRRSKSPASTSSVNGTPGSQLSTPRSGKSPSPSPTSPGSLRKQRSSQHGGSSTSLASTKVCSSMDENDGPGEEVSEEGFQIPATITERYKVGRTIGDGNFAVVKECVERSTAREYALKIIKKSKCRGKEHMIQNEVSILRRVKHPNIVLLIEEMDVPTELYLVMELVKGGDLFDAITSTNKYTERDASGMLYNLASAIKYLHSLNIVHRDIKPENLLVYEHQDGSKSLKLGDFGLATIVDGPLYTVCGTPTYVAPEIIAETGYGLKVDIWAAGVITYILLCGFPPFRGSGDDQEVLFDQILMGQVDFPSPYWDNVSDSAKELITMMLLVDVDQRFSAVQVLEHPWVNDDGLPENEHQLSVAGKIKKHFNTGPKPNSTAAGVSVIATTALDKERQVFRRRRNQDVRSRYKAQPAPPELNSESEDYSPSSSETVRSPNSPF
The experiment in a line: SPR with immobilized recombinant DCLK1. Type of test: binding.

The term Kd denotes a measure of binding affinity in units of concentration. For `O=C1C(=Cc2ccc(F)cc2F)CNCC1=Cc1ccc(F)cc1F` [DiFiD, 3,5-bis (2,4-difluorobenzylidene)-4-piperidone], the Kd amounted to 71 nM.
